In ChEMBL document CHEMBL4334512, “Rationally Designed, Conformationally Constrained Inverse Agonists of RORγt-Identification of a Potent, Selective Series with Biologic-Like in Vivo Efficacy” (J Med Chem, 2019):
pEC50, pIC50: −log10 of the molar value.

Legend:
[1] = Half life in mouse liver microsomes; assay type: ADME, Microsome
[2] = Half life in rat liver microsomes; assay type: ADME, Microsome
[3] = molecular target: T1, Nuclear receptor subfamily 1 group I member 2 (Homo sapiens, UniProt O75469); assay: Activity at PXR (unknown origin)
T1 sequence (O75469 whole entry): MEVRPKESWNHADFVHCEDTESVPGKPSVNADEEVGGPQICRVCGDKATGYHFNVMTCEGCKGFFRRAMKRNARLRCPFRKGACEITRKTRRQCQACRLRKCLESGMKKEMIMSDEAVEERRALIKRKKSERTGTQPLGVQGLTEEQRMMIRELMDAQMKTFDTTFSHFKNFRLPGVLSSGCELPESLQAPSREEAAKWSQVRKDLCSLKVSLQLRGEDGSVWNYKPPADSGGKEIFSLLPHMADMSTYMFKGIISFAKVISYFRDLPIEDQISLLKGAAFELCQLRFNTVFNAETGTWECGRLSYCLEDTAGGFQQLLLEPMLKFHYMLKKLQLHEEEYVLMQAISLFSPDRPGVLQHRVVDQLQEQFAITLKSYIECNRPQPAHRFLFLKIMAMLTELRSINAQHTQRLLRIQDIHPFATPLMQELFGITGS

[4] = molecular target: T2, Oxysterols receptor LXR-beta (Homo sapiens, UniProt P55055); assay: Activity at LXRbeta (unknown origin)
T2 sequence (P55055 whole entry): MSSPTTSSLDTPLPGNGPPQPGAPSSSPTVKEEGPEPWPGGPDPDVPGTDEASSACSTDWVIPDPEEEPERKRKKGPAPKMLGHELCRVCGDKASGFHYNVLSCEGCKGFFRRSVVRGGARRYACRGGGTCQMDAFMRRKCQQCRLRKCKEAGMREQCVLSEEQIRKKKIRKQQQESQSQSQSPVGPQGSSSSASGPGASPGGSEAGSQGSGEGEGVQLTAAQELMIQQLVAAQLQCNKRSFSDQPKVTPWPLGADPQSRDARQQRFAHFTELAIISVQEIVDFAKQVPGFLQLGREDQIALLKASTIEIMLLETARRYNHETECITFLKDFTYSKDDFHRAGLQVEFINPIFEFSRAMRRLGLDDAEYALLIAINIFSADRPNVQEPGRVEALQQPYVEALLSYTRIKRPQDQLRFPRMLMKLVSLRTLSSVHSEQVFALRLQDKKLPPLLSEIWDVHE

[5] = molecular target: T3, Oxysterols receptor LXR-alpha (Homo sapiens, UniProt Q13133); assay: Activity at LXRalpha (unknown origin)
T3 sequence (Q13133 whole entry): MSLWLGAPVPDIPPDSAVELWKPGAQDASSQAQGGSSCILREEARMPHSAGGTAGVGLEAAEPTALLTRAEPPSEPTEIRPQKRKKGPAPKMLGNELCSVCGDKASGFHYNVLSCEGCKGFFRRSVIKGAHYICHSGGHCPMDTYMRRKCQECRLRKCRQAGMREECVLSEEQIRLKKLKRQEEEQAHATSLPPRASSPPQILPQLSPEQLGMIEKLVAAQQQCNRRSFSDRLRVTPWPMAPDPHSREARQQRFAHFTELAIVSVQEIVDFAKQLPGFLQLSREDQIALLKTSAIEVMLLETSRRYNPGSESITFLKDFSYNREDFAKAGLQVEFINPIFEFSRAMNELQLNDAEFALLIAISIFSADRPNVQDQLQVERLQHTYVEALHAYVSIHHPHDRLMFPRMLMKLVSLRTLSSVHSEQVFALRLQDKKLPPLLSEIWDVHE

[6] = Half life in human liver microsomes; assay type: ADME, Microsome
[7] = Unbound fraction in human serum; assay type: ADME, cell-free
[8] = molecular target: T4, Nuclear receptor ROR-alpha (Homo sapiens, UniProt P35398); assay: Activity at RORalpha (unknown origin)
T4 sequence (P35398 whole entry): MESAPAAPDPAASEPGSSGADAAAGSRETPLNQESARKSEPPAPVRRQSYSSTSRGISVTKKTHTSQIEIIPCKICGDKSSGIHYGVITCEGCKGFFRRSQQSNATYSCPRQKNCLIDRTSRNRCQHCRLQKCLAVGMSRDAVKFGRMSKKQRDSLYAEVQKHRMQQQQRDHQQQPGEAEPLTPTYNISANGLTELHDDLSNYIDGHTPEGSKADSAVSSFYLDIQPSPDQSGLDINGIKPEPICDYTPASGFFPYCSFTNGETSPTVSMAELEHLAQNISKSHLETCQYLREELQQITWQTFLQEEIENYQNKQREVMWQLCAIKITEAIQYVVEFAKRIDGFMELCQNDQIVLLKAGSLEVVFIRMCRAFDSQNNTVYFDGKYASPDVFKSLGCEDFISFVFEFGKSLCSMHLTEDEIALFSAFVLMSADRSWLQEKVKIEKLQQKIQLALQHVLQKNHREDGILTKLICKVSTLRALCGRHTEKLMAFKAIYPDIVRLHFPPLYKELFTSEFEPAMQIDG

[9] = Cmax in Balb/c mouse at 10 mg/kg, po; assay type: ADME, organism-based; design: dose 10 mg/kg, route oral; conditions: in vivo
[10] = Drug level in Balb/c mouse at 10 mg/kg, po after 24 hrs; assay type: ADME, organism-based; conditions: in vivo, read-out: Drug uptake
[11] = molecular target: T5, Nuclear receptor ROR-beta (Homo sapiens, UniProt Q92753); assay: Activity at RORbeta (unknown origin)
T5 sequence (Q92753 whole entry): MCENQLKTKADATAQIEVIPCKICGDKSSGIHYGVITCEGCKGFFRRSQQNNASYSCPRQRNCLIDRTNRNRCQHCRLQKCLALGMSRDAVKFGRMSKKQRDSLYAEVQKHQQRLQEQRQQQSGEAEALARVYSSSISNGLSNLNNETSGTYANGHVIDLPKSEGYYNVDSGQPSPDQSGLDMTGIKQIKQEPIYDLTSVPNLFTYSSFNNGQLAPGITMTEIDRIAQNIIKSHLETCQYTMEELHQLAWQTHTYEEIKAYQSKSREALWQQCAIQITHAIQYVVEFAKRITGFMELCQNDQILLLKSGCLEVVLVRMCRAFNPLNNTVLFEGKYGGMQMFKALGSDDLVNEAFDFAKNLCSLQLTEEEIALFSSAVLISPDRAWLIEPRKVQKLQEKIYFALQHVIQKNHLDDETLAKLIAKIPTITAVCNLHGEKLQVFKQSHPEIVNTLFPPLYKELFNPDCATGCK

[12] = molecular target: T6, Nuclear receptor ROR-gamma (Homo sapiens, UniProt P51449); assay: Inverse agonist activity at full length human RORgammat expressed in human Jurkat cells assessed as inhibition of constitutive receptor activity incubated for 18 hrs by Gal4-Luc reporter gene assay; assay type: cell-based
T6 sequence (P51449 whole entry): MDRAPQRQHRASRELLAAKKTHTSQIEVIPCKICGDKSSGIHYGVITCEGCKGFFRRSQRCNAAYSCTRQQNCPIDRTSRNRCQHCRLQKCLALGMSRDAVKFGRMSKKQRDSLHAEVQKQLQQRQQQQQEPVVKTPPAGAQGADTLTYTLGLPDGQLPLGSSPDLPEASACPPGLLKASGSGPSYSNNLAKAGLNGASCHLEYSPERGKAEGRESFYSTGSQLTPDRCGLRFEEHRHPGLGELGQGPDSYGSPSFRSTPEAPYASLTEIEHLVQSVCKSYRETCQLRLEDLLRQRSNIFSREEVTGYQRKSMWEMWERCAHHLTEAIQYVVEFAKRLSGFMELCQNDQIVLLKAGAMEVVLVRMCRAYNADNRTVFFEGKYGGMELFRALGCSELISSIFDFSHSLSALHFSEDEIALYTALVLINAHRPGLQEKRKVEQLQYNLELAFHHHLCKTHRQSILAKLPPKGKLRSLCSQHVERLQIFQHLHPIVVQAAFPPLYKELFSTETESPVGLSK

[13] = molecular target: T6, Nuclear receptor ROR-gamma; assay: Inverse agonist activity at RORgammat in CD3 and CD28-stimulated human whole blood assessed as reduction in IL17A production incubated for 1 hr before CD3 and CD28 stimulation for 20 hrs by AlphaLISA method; assay type: tissue-based

Structure (SMILES) | half-life [1] [h] | half-life [2] [h] | pIC50 [3] | pIC50 [4] | pIC50 [5] | half-life [6] [h] | fraction unbound [7] | pIC50 [8] | Cmax [9] [nM] | concentration at 24 h [10] [nM] | pIC50 [11] | pEC50 [12] | pEC50 [13]
CN1C[C@H]2N(C(=O)[C@H]3CC[C@H](C(=O)O)CC3)CC[C@@]2(S(=O)(=O)c2ccc(F)cc2)c2ccc(C(F)(C(F)(F)F)C(F)(F)F)cc21 | > 2 | > 2 | < 4.40 | < 5.00 | < 5.00 | > 2 | 0.024 | < 5.00 | 10000 | 710 | < 5.00 | – | –
O=C(O)[C@H]1CC[C@](O)(C(=O)N2CC[C@@]3(S(=O)(=O)c4ccc(F)cc4)c4ccc(C(F)(C(F)(F)F)C(F)(F)F)cc4CC[C@@H]23)CC1 | > 2 | > 2 | < 4.40 | < 5.00 | < 5.00 | 1.65 | – | < 5.00 | 2500 | 260 | < 5.00 | – | –
O=C(O)[C@H]1CC[C@](F)(C(=O)N2CC[C@@]3(S(=O)(=O)c4ccc(F)cc4)c4ccc(C(F)(C(F)(F)F)C(F)(F)F)cc4CC[C@@H]23)CC1 | > 2 | > 2 | < 4.40 | < 5.00 | < 5.00 | > 2 | – | < 5.00 | – | – | < 5.00 | 7.82 | 7.34
CN1C[C@H]2N(C(=O)C3(O)CCS(=O)(=O)CC3)CC[C@@]2(S(=O)(=O)c2ccc(F)cc2)c2ccc(C(F)(C(F)(F)F)C(F)(F)F)cc21 | 0.433 | 1.4 | < 4.40 | < 5.00 | < 5.00 | > 2 | 0.003 | < 5.00 | – | – | < 5.00 | 7.70 | 7.08

More lines, now with the values ahead:

half-life [1] [h] | half-life [2] [h] | pIC50 [3] | pIC50 [4] | pIC50 [5] | half-life [6] [h] | fraction unbound [7] | pIC50 [8] | Cmax [9] [nM] | concentration at 24 h [10] [nM] | pIC50 [11] | pEC50 [12] | pEC50 [13] | Structure (SMILES)
> 2 | > 2 | < 4.40 | < 5.00 | < 5.00 | > 2 | 0.005 | < 5.00 | 13000 | 3000 | < 5.00 | – | – | CCN1C[C@H]2N(C(=O)[C@H]3CC[C@H](C(=O)O)CC3)CC[C@@]2(S(=O)(=O)c2ccc(F)cc2)c2ccc(C(F)(C(F)(F)F)C(F)(F)F)cc21
> 2 | > 2 | < 4.40 | < 5.00 | < 5.00 | > 2 | – | < 5.00 | 9300 | 1000 | < 5.00 | – | – | O=C(O)C12CCC(C(=O)N3CC[C@@]4(S(=O)(=O)c5ccc(F)cc5)c5ccc(C(F)(C(F)(F)F)C(F)(F)F)cc5CC[C@@H]34)(CC1)CC2
> 2 | > 2 | < 4.40 | < 5.00 | < 5.00 | > 2 | – | < 5.00 | 6900 | 740 | < 5.00 | – | – | O=C(O)[C@H]1CC[C@H](C(=O)N2CC[C@@]3(S(=O)(=O)c4ccccc4)c4ccc(C(F)(C(F)(F)F)C(F)(F)F)cc4CC[C@@H]23)CC1
